Laboratory results as given in article PMC8973346, “Dissecting The role of Plasmodium metacaspase-2 in malaria gametogenesis and sporogony” (Emerging Microbes & Infections, 2022).

Target: T1, PfMCA-2 (metacaspase-2) (Plasmodium falciparum, UniProt Q8IL84)
T1 construct: gene MCA2; catalytic domain
Test: fluorogenic Z-GRR-AMC cleavage assay with recombinant enzyme, Michaelis-Menten nonlinear regression
Type: biochemical

T1 sequence (Q8IL84 1650-2020): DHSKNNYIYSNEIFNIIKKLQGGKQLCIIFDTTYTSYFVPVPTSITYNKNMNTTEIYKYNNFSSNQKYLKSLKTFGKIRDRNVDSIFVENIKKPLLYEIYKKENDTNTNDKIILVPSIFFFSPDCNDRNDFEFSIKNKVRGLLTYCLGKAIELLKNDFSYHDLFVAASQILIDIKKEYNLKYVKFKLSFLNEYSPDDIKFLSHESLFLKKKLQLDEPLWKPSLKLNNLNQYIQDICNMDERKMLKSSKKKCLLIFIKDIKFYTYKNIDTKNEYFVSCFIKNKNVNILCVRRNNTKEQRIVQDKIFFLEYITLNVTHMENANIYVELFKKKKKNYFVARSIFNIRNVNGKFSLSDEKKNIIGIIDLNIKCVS

Structure (SMILES)	Ki [nM]
CC(C)c1ccc(CNc2ccc3oc(CC4CCCCC4)nc3c2)cc1 [C-532]	2.1 ± 0.12
CCCc1ccc(CNc2ccc3oc(CC4CCCCC4)nc3c2)cc1 [C-533]	1.62 ± 0.22
